The values below are quoted from earlier work in patent US20230233646A1, “METHOD OF TREATMENT OF CONGENITAL MYASTHENIC SYNDROME USING DOK7 GENE OR POLYPEPTIDE” (priority 2020, published 2023).

The test system of this data set is peripheral cholinesterase enzyme.

Regarding `CN(C)C(=O)Oc1ccc[n+](C)c1` [Pyridostigmine], the “fraction of peripheral cholinesterase enzyme carbamylated” value is “about 30%”.
